Here are results for one compound from patent US20240279212A1, “NOVEL INTERMEDIATE FOR PREPARATION OF PYROXASULFONE” (UPL LIMITED, priority 2021, published 2024).

Series [1] can be described thus: Particle size distribution of Pyroxasulfone prepared in Example 8. The format is physicochemical. The settings on record: product of Example 8 (H2O2/sodium tungstate oxidation, isopropyl alcohol/water treatment).
Series [2] in a line: Bulk density of Pyroxasulfone prepared in Example 8. Type of series: physicochemical. Particulars: product of Example 8 (H2O2/sodium tungstate oxidation, isopropyl alcohol/water treatment).

As for `Cn1nc(C(F)(F)F)c(CS(=O)(=O)C2=NOC(C)(C)C2)c1OC(F)F` [Pyroxasulfone, 3-[5-(difluoromethoxy)-1-methyl-3-(trifluoromethyl)pyrazol-4-ylmethylsulfonyl]-4,5-dihydro-5,5-dimethyl-1,2-oxazole], the “Particle Size Distribution: D50” value in series [1] is 113.30 μm. In series [2], this compound gave a Bulk density of 0.54 to 0.57 g/mL.
